Data published in patent US20260015574A1, “METHODS FOR SHORTENING LAG PHASE DURATION IN MICROORGANISMS” (YEDA RESEARCH AND DEVELOPMENT CO. LTD., priority 2022, published 2026).

Assays:
[1] = system: Phaeobacter inhibens DSM 17395; assay: Growth / lag phase shortening assay of P. inhibens pure cultures with glucose; format: cell-based
Description: ASW was adjusted to pH 8 using HCl. If not otherwise stated, the medium was further supplemented with a source of carbon (glucose, 1 mM), nitrogen (NH4Cl, 5 mM), and sulfur (Na2SO4, 33 mM), referred to as ASW+CNS. […] A 96-well Tecan Infinite M Plex plate reader was used for high-resolution monitoring of bacterial growth dynamics at 30° C. An ImageStreamX Flow Imager system (Amnis) was used to characterize bacterial populations during the lag phase (FIG. 6). The growth of bacteria in co-culture with algae was monitored by counting colony forming units (CFU) on ½ YTSS agar plates. The growth of algae was monitored with a CellStream flow cytometer (Merck, Darmstadt, Germany).
To test whether methylated compounds affect the growth of bacteria, the inventors cultivated bacterial pure cultures with glucose as main growth substrate and supplemented the medium with the well-studied methylated compound dimethylsulfoniopropionate (DMSP). DMSP that is naturally produced by microalgae and found in detectable levels in seawater, is known to be metabolized by various bacteria. […] To quantify the lag phase shortening effect, the inventors calculated the Δlag time, which is the time difference between the commence of exponential growth in control cultures compared to treated cultures (FIG. 5B).
To reflect the natural low bacterial abundance in the oligotrophic ocean with low microalgal productivity, the current bacterial growth experiments were routinely initiated with an optical density (OD) of 0.00001. Such low initial ODs challenge the detection of cell divisions that occur prior to reaching an OD of at least 0.001, which is the theoretical limit of detection. To determine the actual length of the lag phase, the inventors analyzed bacterial cultures using imagining flow cytometry.

[2] = system: betaine-homocysteine S-methyltransferase (Bmt); assay: Methionine synthesis in vitro assay with purified Bmt; format: biochemical, P. inhibens; conditions: 200 μM methyl group donor, 2 mM homocysteine, 30° C., 2 h, fluorometric
Description: The expression plasmid pET29b encoding the bmt gene with a Strep-tag II peptide sequence fused to the N-terminus was purchased from Twist Biosciences. The methionine synthase gene mmuM from E. coli was PCR-amplified (Phusion High-Fidelity DNA polymerase, Thermo Scientific) and cloned into the pET29b vector using the CPEC technique (Quan J. & Tian J., 2009). Resulting clones were validated by sanger sequencing. E. coli BL21 electrocompetent cells were transformed with […] of the expression vectors, and cells were selected on LB agar plates containing 50 μg/ml kanamycin. Bacteria were grown in Tryptone Yeast extract Glucose (TYG) medium supplemented with 50 μg/ml kanamycin at 37° C. to mid-log phase (OD600 0.7). Then, cultures were induced with 0.2 mM of IPTG for 3 hours at 37° C. Bacteria were harvested by centrifugation (4,000 rpm for 15 min at 4° C.) and cells were resuspended in 20 mL of NP buffer (50 mM NaH2PO4, 300 mM NaCl, pH 8) and 100 μl of 10× Protease inhibitor (Sigma). […] The Protein concentration was determined with the Protein Assay Dye Reagent Concentrate (BioRad) following the manufacturer's instructions. […]
The methionine synthesis in vitro assay was based on the protocol of Ranocha et al., 2000. […] Methionine formation was measured from 20 μl of the in vitro reactions using the Fluorometric Methionine Assay Kit (Sigma; results depicted in FIG. 14). […]

[3] = artificial seawater medium, 1 mM glucose, micromolar DMSP

Compound: C[S+](C)CCC(=O)[O-] [DMSP, dimethylsulfoniopropionate]
- amount of DMSP per cell corresponding to the minimal effective concentration ([1]; 2 nM DMSP per 25,000 cells/mL): 80 amol
- lag phase shortening in the presence of TMP ([1]; 2 μM DMSP, culture with TMP supplemented with nucleotides): still elicited lag phase shortening
- growth rate [1, 3]: not affected
- lag time [1, 3]: the lag time was shortened
- lag phase shortening effect under salt stress ([1]; high salt conditions (FIG. 19A)): enhance the lag phase shortening effect
- growth of the bacterium ([1]; micromolar concentrations of DMSP, glucose as main growth substrate): stimulate the growth of the bacterium
- minimal DMSP concentration that triggered a significant lag phase shortening ([1]; per 25,000 cells/mL (OD 0.00001), glucose as main carbon source): 2 nM
- lag phase shortening effect under temperature stress ([1]; temperatures that deviate from the 30° C. optimum (FIG. 19B)): enhance the lag phase shortening effect
- methionine formation with DMSP as methyl group donor [2]: catalyzes the production of methionine
